{"source": "patent US5574057A", "about": "“Naamidine A extracted from sea sponges and methods for its use as an anti-tumor agent” (priority 1994, dated 1996)", "key": {"c-src tyrosine kinase": {"target": "c-src tyrosine kinase (Homo sapiens, UniProt P12931)", "assay": "c-src tyrosine kinase assay (phosphorylation of RCM lysozyme)", "type": "biochemical", "details": "isolated c-src, RCM lysozyme substrate, 30 minutes", "description": "Experimental Test 5. […] In this assay, phosphorylation of the substrate RCM (reduced, carboxyamidomethylated and maleylated) lysozyme by c-src is quantified using a peroxidase-linked anti-phosphotyrosine antibody to determine the activity of this kinase.\nThe sample of naamidine A was incubated with the substrate RCM […], c-src enzyme, and ATP for 30 minutes, after which time the reaction was terminated and tyrosine phosphorylation was assessed using a peroxidase-linked antiphosphotyrosine antibody."}, "[1]": {"system": "EGF-induced mitogenesis in EC25 cells (NIH3T3 cells transfected with the EGF receptor gene)", "assay": "EGF mitogenic assay (3H-thymidine incorporation), EGF stimulation", "type": "cell-based, human", "text": "The assay to determine a compound's selectivity compares the level of inhibition of the targeted activity (EGF stimulation of cell growth) with the inhibition of insulin stimulated cell growth.\n(§1) An in vitro bioassay, called the EGF mitogenic assay, was used to aid in the identification of antagonists of EGF dependent cell proliferation. The mitogenic response due to EGF is quantified by measuring the incorporation of ^3 H-thymidine into NIH3T3 cells (or \"EC25 cells\") that have been transfected with the EGF receptor gene. Stimulation of these cells with insulin is used as a \"nonspecific\" mitogen control. Samples were preincubated with the EC25 cells for one hour before the addition of the mitogen, then further incubated for 16 hours, and mitogenic stimulation assessed by a one hour incorporation of ^3 H-thymidine. The development of the EC25 cell line, and the EGF mitogenic assay in which it is used, is explained in greater detail in Velu, T. J. et al., \"Epidermal Growth Factor-Dependent Transformation by a Human EGF Receptor Proto-Oncogene, \" Science 238:1408-10 (1987).\n(§2) The concentration at which control insulin stimulation is inhibited 50% by the test sample (IC50(insutin)) was calculated as was the same value for EGF (IC50(EGF)). These values were then used to calculate a specificity ratio which is IC50(insulin)/ IC50(EGF).\nThese activity criteria help determine which inhibitors are specific for the EGF signalling pathway."}, "EGF receptor": {"system": "EGF receptor", "assay": "competition with binding of biotinylated EGF to A431 cells", "set-up": "species or system human", "details": "up to 500 μg/ml", "description": "Experimental Test 4. Presently, the mechanism of action of naamidine A for inhibition of the EGF signalling pathway is unknown. […] This assay measured the ability of naamidine A to compete with the binding of biotinylated EGF to the EGF receptor, which is highly over expressed in A431 human squamous cell carcinoma cells.\nIn the assay represented in FIG. 3, the A431 cells were incubated in the presence of either the EGF standard or naamidine A plus biotinylated EGF for one hour and the degree of inhibition of biotinylated EGF binding to the EGF receptor was quantified using a peroxidase-linked anti-biotin antibody. The solid circles (.circle-solid.) in FIG. 3 represent the level of binding of EGF to cell receptors when the cells are subjected to various levels of naamidine A. The open circles (.largecircle.) represent the level of binding of EGF to cell receptors when the cells are subjected to various levels of EGF, which is used as a positive control."}, "[2]": {"system": "insulin stimulation of EC25 cells", "assay": "EGF mitogenic assay (3H-thymidine incorporation), insulin stimulation as nonspecific mitogen control", "type": "cell-based", "details": "pure sample", "description": "as §1, §2"}, "[3]": {"system": "human squamous cell carcinoma (A431)", "assay": "first in vivo test, A431 xenograft in athymic mice, assessed 15 days after implantation (Experimental Test 7)", "set-up": "species or system human tumor in athymic mice", "details": "for % Inhibition of tumor growth: q1d×5;1, 15 days; for toxicity: 100 mg/kg", "description": "Tumor growth was assessed by measuring the change in tumor size over a fifteen day period. Although naamidine A inhibited tumor growth, the inhibition was a modest 37%. Therefore, a second evaluation was carried out using a different schedule of treatment and evaluation.\nJ. Oncology, 1:293-298 (1992).\nTumor growth was calculated as FTS/ITS. […] Experimental Test 7.\nThe effect of naamidine A on the tumor was assessed 15 days after tumor implantation and there were six mice per treatment group."}, "[4]": {"system": "human squamous cell carcinoma (A431)", "assay": "second in vivo test, A431 xenograft in athymic mice, assessed 7 days after implantation (Experimental Test 8)", "details": "for % Inhibition of tumor growth: q1d×5;1, 7 days; for deaths: q1d×5;1, six mice per group", "quoted_text": "In this test, the mice were treated with varying dosages of naamidine A for five days after implantation of the carcinoma. The tumors were then evaluated for growth activity seven days after implantation, as determined by the change in tumor size.\nThe model system used for these in vivo studies was a human squamous cell carcinoma (A431) that over expresses the EGF receptor, which was implanted into athymic mice.\nAccording to Robinson et al., the A431 cell line was adapted to grow in female athymic mice by s.c. inoculation of 10^7 cultured cells into the axillary region. Tumors were passaged in female athymic mice by sterile dissection of solid tumors and s.c. implantation of tumor fragments into the axillary region.\nDrug effects were calculated as the mean % inhibition the drug treatment produced on tumor growth when compared to control. Inhibition of >80% of tumor growth was considered a working criteria for \"active\".\nIn this second in vivo test, the length of time for tumor growth was shortened to seven days to more closely coincide with the time of drug treatment. Two groups of twelve mice each were treated with the standard antibody (MA225), while there were six mice per group treated with varying doses of naamidine A.\nThe tumor was exposed to the test agent (naamidine A) once a day for 5 days (q1 d×5; 1), which was nearly the entire length of the growth period of 7 days. During this time, the tumor would normally be expected to double about 1.5 times instead of 3 times for a 15 day period.\nUnder these conditions, doses ranging from 0.78 mg/kg to 50 mg/kg were given using the same dosing schedule as with the first experiment."}, "[5]": {"details": "25 mg/kg, listed as Naamidine A"}}, "note": "“Also recorded” adds a separate entry of the source.", "data": [{"substance": "naamidine A", "values": [{"measurement": "inhibition of c-src tyrosine kinase activity (in words)", "setting": "c-src tyrosine kinase", "value": "lack of c-src tyrosine kinase activity; also recorded: not inhibit the activity of the isolated c-src tyrosine kinase; also recorded: no significant inhibition of c-src tyrosine kinase activity"}, {"measurement": "activity in the EGF assay (in words)", "setting": "[1]; EC25 cells", "value": "very good activity"}, {"measurement": "IC50(EGF)", "setting": "[1]; EC25 cells, EGF stimulation, pure sample", "value": 4.8, "unit": "µg/mL"}, {"measurement": "IC50(insulin)/IC50(EGF) ratio", "setting": "[1]; EC25 cells, specificity ratio", "value": 22}, {"measurement": "specificity for EGF versus insulin stimulated response (in words)", "setting": "[1]; tritiated thymidine incorporation after EGF or insulin stimulation", "value": "less potent in inhibiting insulin stimulated cell proliferation compared to EGF stimulated growth; also recorded: more specific for the EGF mediated mitogenic response than for the insulin mediated mitogenic response"}, {"measurement": "selectivity in inhibiting EGF dependent growth relative to insulin dependent growth", "setting": "[1]; tritiated thymidine incorporation, preliminary testing", "value": "about 22 times"}, {"measurement": "effect on binding of EGF to its receptor", "setting": "EGF receptor", "value": "does not appear to affect the binding of EGF to its corresponding receptor cite; also recorded: did not appear to effect the binding of EGF to receptor sites"}, {"measurement": "general in vitro cytotoxicity (in words)", "setting": "HCT116 colon cells", "value": "relatively low general in vitro cytotoxicity"}, {"measurement": "IC50", "setting": "HCT116 colon cells; HCT116, XTT, 72 hours", "value": 31, "unit": "µg/mL"}, {"measurement": "IC50(insulin)", "setting": "[2]", "value": 105.6, "unit": "µg/mL"}, {"measurement": "% Inhibition of tumor growth", "setting": "[3]; 1.6 mg/kg", "value": 36.6, "unit": "%"}, {"measurement": "% Inhibition of tumor growth", "setting": "[3]; 6.25 mg/kg", "value": 32.2, "unit": "%"}, {"measurement": "% Inhibition of tumor growth", "setting": "[3]; 25 mg/kg", "value": 37, "unit": "%"}, {"measurement": "% Inhibition of tumor growth", "setting": "[3]; [5]", "value": 37.1, "unit": "%"}, {"measurement": "net reduction in tumor cell growth", "setting": "[3]; first in vivo test, 15 days, includes period of regrowth", "value": "30-40%"}, {"measurement": "toxicity", "setting": "[3]; mice, q1d×5;1", "value": "toxic to the mice"}, {"measurement": "toxicity", "setting": "[3]; mice, q1d×5;1, listed as Naamidine A", "value": "toxic (multiple deaths)"}, {"measurement": "maximally tolerated dose", "setting": "[3]; mice, q1d×5;1, 21600 min", "value": 25, "unit": "mg/kg"}, {"measurement": "% Inhibition of tumor growth", "setting": "[4]; 1.56 mg/kg", "value": 47.9, "unit": "%"}, {"measurement": "% Inhibition of tumor growth", "setting": "[4]; 3.13 mg/kg", "value": 35, "unit": "%"}, {"measurement": "% Inhibition of tumor growth", "setting": "[4]; 6.25 mg/kg", "value": -7.5, "unit": "%"}, {"measurement": "% Inhibition of tumor growth", "setting": "[4]; 12.5 mg/kg", "value": 52, "unit": "%"}, {"measurement": "% Inhibition of tumor growth", "setting": "[4]; 25 mg/kg", "value": "at least 85%"}, {"measurement": "% Inhibition of tumor growth", "setting": "[4]; [5]", "value": 87.4, "unit": "%"}, {"measurement": "% Inhibition of tumor growth", "setting": "[4]; 50 mg/kg", "value": 96.4, "unit": "%"}, {"measurement": "deaths (in words)", "setting": "[4]; mice, 25 mg/kg", "value": "death of one mouse"}, {"measurement": "deaths", "setting": "[4]; mice, 25 mg/kg", "value": 1, "unit": "death"}, {"measurement": "toxicity (in words)", "setting": "[4]; mice, 50 mg/kg", "value": "toxic to many of the mice"}, {"measurement": "deaths", "setting": "[4]; mice, 50 mg/kg", "value": 2, "unit": "deaths"}, {"measurement": "maximal tolerated dose", "setting": "[4]; mice, q1d×5;1, 10080 min", "value": 25, "unit": "mg/kg"}, {"measurement": "LD-10 (dose at which 10% of the mice died)", "setting": "[4]; mice, q1d×5;1, roughly estimated from Experimental Test 8", "value": "about 25 mg/kg"}, {"measurement": "Tumor growth inhibition", "setting": "[4]; somewhat toxic doses, 7 days, best results at about 25 mg/kg", "value": "about 85%"}]}]}
